Each block holds one compound with its values, some of them ahead of it.
Tests used:
cereal = test: Profiling test, herbicidal post-emergence action with safener: container trials with cereal in a greenhouse, Mefenpyr 1 day prior to herbicide application; format: in vivo; settings: without safener
Experimental: Seeds of monocotyledonous and dicotyledonous weed and crop plants are placed in sandy loam soil in wood fibre pots or in plastic pots, covered with soil and cultivated in a greenhouse, during the vegetation period also outdoors outside of the greenhouse, under good growth conditions. 2-3 weeks after sowing, the test plants are treated at the one- to three-leaf stage. The test compounds, formulated as wettable powders (WP) or liquid (EC), are, in various dosages with a water application rate of 300 l/ha (converted), with wetting agent (0.2 to 0.3%) added, sprayed onto the plants and the surface of the soil. […]
If it is additionally to be tested as to whether safeners can improve the plant compatibility of test substances in the case of crop plants, the following options are used for applying the safener: • seeds of the crop plants are, before sowing, dressed with the safener substance (the amount of safener stated in percent, based on the weight of the seed) • before the application of the test substances, the proper plants are sprayed with the safener at a certain application rate per hectare (usually 1 day before the application of the test substances) • the safener is applied together with the test substance as a tank mix (the amount of safener stated in g/ha or as a ratio, based on the herbicide).
By comparing the effect of the test substances on crop plants without or with safener treatment, it is possible to assess the effect of the safener substance.

[1] = Determination of the log P values by HPLC on a reversed-phase column (C18); format: physicochemical; settings: for chromatographic logP: reversed-phase HPLC column (C18)
Experimental: The log P values given in the table were determined in accordance with EEC Directive 79/831 Annex V.A8 by HPLC (High Performance Liquid Chromatography) on a reversed-phase column (C18). Temperature: 43° C.
Mobile phases for the determination in the acidic range (pH 2.3): 0.1% aqueous phosphoric acid, acetonitrile; linear gradient from 10% acetonitrile to 90% acetonitrile
Calibration was carried out using unbranched alkan-2-ones (with 3 to 16 carbon atoms) whose log P values are known (determination of the log P values by the retention times using linear interpolation between two successive alkanones).

[2] = 28 days after application, 12.5 g of a.i./ha
[3] = 28 days after application, 25 g of a.i./ha
[4] = 28 days after application, 11 g of a.i./ha
[5] = 28 days after application, 23 g of a.i./ha
[6] = 28 days after application, 46 g of a.i./ha
[7] = 28 days after application, 91 g of a.i./ha
[8] = compounds of the formula (I-2-a), m.p. ° C./log P
[9] = pH 2.3, HPLC reversed-phase column (C18), acidic range (pH 2.3), 43° C.
[10] = HPLC reversed-phase column (C18), acidic range (pH 2.3), 43° C.

log P [1, 8]: oil/3.68
SMILES: COCCC1CCCC2(C1)OC(=O)C(c1cc(-c3ccc(Cl)cc3)ccc1Cl)=C2O (stereo not drawn) [Example I-2-a-26]

log P [1, 8]: oil/3.71
SMILES: COCCC1CCC2(CC1)OC(=O)C(c1cc(-c3ccc(Cl)cc3)ccc1C)=C2O (stereo not drawn) [Example I-2-a-28]

log P [1, 8]: oil/3.10
SMILES: COCCC1CCC2(CC1)OC(=O)C(c1c(C)cc(Br)cc1C)=C2O (stereo not drawn) [Example I-2-a-29]

log P [1, 8]: oil/3.00
SMILES: COCCC1CCC2(CC1)OC(=O)C(c1c(C)cc(Cl)cc1C)=C2O (stereo not drawn) [Example I-2-a-30]

log P [1, 8]: oil/2.92
SMILES: COCCC1CCC2(CC1)OC(=O)C(c1cc(C)c(C)cc1C)=C2O (stereo not drawn) [Example I-2-a-31]

log P [1, 8]: oil/3.59
SMILES: CCc1cc(Br)cc(CC)c1C1=C(O)C2(CCC(CCOC)CC2)OC1=O (stereo not drawn) [Example I-2-a-32]

log P [1, 8]: oil/3.40
SMILES: CCc1cc(C)cc(CC)c1C1=C(O)C2(CCC(CCOC)CC2)OC1=O (stereo not drawn) [Example I-2-a-33]

log P [1, 8]: oil/3.67
SMILES: COCCC1CCC2(CC1)OC(=O)C(c1cc(-c3ccc(Cl)cc3)ccc1Cl)=C2O (stereo not drawn) [Example I-2-a-35]

chromatographic logP [1, 9]: 4.79
SMILES: COCCC1CCC2(CC1)OC(=O)C(c1c(C)cc(C)cc1C)=C2OC(=O)C(C)C (stereo not drawn) [Example I-2-b-1]

chromatographic logP [1, 9]: 5.43
SMILES: CCc1cc(C)cc(CC)c1C1=C(OC(=O)C(C)C)C2(CCC(CCOC)CC2)OC1=O (stereo not drawn) [Example I-2-b-2]

log P [1, 10]: 4.97
SMILES: CCOC(=O)OC1=C(c2c(CC)cc(C)cc2CC)C(=O)OC12CCCC(CCOC)C2 (stereo not drawn) [Example I-2-c-3]

log P ([1]; cis/trans isomer mixture, HPLC reversed-phase column (C18), acidic range (pH 2.3), 43° C.): 5.13
chromatographic logP ([1]; pH 2.3, cis/trans isomer mixture, HPLC reversed-phase column (C18), acidic range (pH 2.3), 43° C.): 5.01
SMILES: CCOC(=O)C1(OC(=O)Cc2c(C)cc(C)cc2C)CCC(CCOC)CC1 (stereo not drawn) [III-1]

The next lines start with the compound.

SMILES: CCc1cc(C)cc(Br)c1C1=C(O)C2(CCC(COC)CC2)NC1=O (single isomer, unassigned) [Example I-1-a-3]
Summer barley observed (%) (cereal; [2]): 20%
Summer barley observed (%) (cereal; [3]): 60%
Summer wheat observed (%) (cereal; 10 days after application, 12.5 g of a.i./ha): 20%
Summer wheat observed (%) (cereal; 10 days after application, 25 g of a.i./ha): 40%

SMILES: CCc1cc(C)cc(Br)c1C1=C(O)C2(CCCC(COC)C2)NC1=O (single isomer, unassigned) [Example I-1-a-8]
Summer wheat observed (%) (cereal; [2]): 90%
Summer wheat observed (%) (cereal; [3]): 95%

SMILES: CCCOCC1CCCC2(C1)NC(=O)C(c1c(Br)cc(C)cc1CC)=C2O (single isomer, unassigned) [Example I-1-a-12]
Summer barley observed (%) (cereal; [4]): 10%
Summer barley observed (%) (cereal; [5]): 20%
Summer barley observed (%) (cereal; [6]): 30%
Summer barley observed (%) (cereal; [7]): 60%
Summer wheat observed (%) (cereal; [4]): 10%
Summer wheat observed (%) (cereal; [5]): 15%
Summer wheat observed (%) (cereal; [6]): 20%
Summer wheat observed (%) (cereal; [7]): 30%

SMILES: CCc1cc(Cl)cc(OC)c1C1=C(OC(=O)COC)C2(CCCC(COC)C2)NC1=O (single isomer, unassigned) [Example I-1-b-6]
Summer barley observed (%) (cereal; [2]): 70%

SMILES: COCCC1CCCC2(C1)OC(=O)C(c1c(C)cc(C)cc1C)=C2O (stereo not drawn) [Example I-2-a-22]
log P [1, 8]: oil/2.94

SMILES: CCc1cc(Br)cc(CC)c1C1=C(O)C2(CCCC(CCOC)C2)OC1=O (stereo not drawn) [Example I-2-a-23]
log P [1, 8]: oil/3.63

SMILES: CCc1cc(C)cc(CC)c1C1=C(O)C2(CCCC(CCOC)C2)OC1=O (stereo not drawn) [Example I-2-a-24]
log P [1, 8]: oil/3.44

SMILES: COCCC1CCCC2(C1)OC(=O)C(c1cc(C)c(-c3ccc(Cl)cc3)cc1C)=C2O (stereo not drawn) [Example I-2-a-25]
log P [1, 8]: oil/4.03

SMILES: CCOC(=O)OC1=C(c2cc(-c3ccc(Cl)cc3)ccc2C)C(=O)OC12CCC(COC)CC2 (stereo not drawn) [Example I-2-c-2]
log P [1, 10]: 4.95
